Reference: article PMC6915728 (Nature Communications, 2019)
Like-named read-outs stand apart in the source and are kept apart here.

Tests used:
[1] = system: bacterial species in which the gene showed activity; settings: cited from earlier work
[2] = system: E. coli K12 BW25113 carrying the pooled ASKA overexpression plasmid library (~4400 ORFs); assay: Chemical-genetic profiling: pooled competitive growth of the ASKA gene-overexpression library with and without AMP, deep sequencing readout; assay type: cell-based, Escherichia coli; settings: whether the literature phenotype was captured by the overexpression screen
In short: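 Pooled ASKA plasmids in BW25113, IPTG-induced (100 µM) in MS medium with chloramphenicol, competed ~12 generations with or without AMP at a sub-inhibitory level doubling population doubling time. Plasmid pools exonuclease-cleaned and deep-sequenced for relative plasmid abundance; two replicates per AMP, five untreated; empty-vector strain controls genomic background.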

In the case of “KTKKKFLKKT [PXB, Polymyxin B, from Bacillus polymyxa, purchased from Sigma-Aldrich; disrupts cell membrane; cluster C1]”, the “Gene that modulates bacterial susceptibility to the AMP” value ([1]; Acinetobacter baumannii, ref http://aac.asm.org/content/54/12/4971.full.pdf+html) is given as “lpxA”, the “Gene that modulates bacterial susceptibility to the AMP” value ([1]; Bordetella pertussis, ref http://www.ncbi.nlm.nih.gov/pmc/articles/PMC4136009/) is given as “lgmA, IgmB, IgmC” and the “Gene that modulates bacterial susceptibility to the AMP” value ([1]; Burkholderia genus, ref http://www.ncbi.nlm.nih.gov/pmc/articles/PMC3143681/, http://www.ncbi.nlm.nih.gov/pmc/articles/PMC1428139/) is given as “waaF”. The “Gene that modulates bacterial susceptibility to the AMP” value ([1]; Campylobacter jejuni, ref http://www.ncbi.nlm.nih.gov/pmc/articles/PMC3270987/) was “eptC”, the “Gene that modulates bacterial susceptibility to the AMP” value ([1]; Escherichia coli, Klebsiella pneumoniae, Pseudomonas aeruginosa, Kluyvera ascorbata, ref http://www.ncbi.nlm.nih.gov/pubmed/26603172, http://ac.els-cdn.com/S1473309915005332/1-s2.0-S1473309915005332-main.pdf?_tid=16a7f944-6944-11e6-8a9d-00000aab0f02&acdnat=1471965364_7f481026d1a49114e23adef4a6b4d1a9, https://www.ncbi.nlm.nih.gov/pmc/articles/PMC5119035/) was “mcr1” and the “Gene that modulates bacterial susceptibility to the AMP” value ([1]; Escherichia coli, Salmonella sp., Pseudomonas aeruginosa, ref https://ac.els-cdn.com/S0923250806000532/1-s2.0-S0923250806000532-main.pdf?_tid=eafe08ea-d0fa-11e7-b1a6-00000aacb35f&acdnat=1511516356_5b16dbb059dc1cc9bc53dd73456e437d) was “etk”. The “Gene that modulates bacterial susceptibility to the AMP” value ([1]; Escherichia coli, ref http://www.jbc.org/content/287/46/38778.full.pdf, http://www.jbc.org/content/early/2007/10/10/jbc.M706172200.full.pdf, https://onlinelibrary.wiley.com/doi/epdf/10.1111/j.1365-2958.2012.08154.x) was “arnD”, the “Gene that modulates bacterial susceptibility to the AMP” value ([1]; Helicobacter pylori, ref http://www.ncbi.nlm.nih.gov/pmc/articles/PMC1482963/) was “lpxE” and the “Gene that modulates bacterial susceptibility to the AMP” value ([1]; Klebsiella pneumoniae, ref http://iai.asm.org/content/72/12/7107.full.pdf+html) was “cps”. The “Gene that modulates bacterial susceptibility to the AMP” value ([1]; Klebsiella pneumoniae, ref http://jac.oxfordjournals.org/content/70/1/75.full.pdf+html, http://embomolmed.embopress.org/content/9/4/430.long) was “mgrB”, the “Gene that modulates bacterial susceptibility to the AMP” value ([1]; Klebsiella pneumoniae, ref http://www.ncbi.nlm.nih.gov/pmc/articles/PMC2798511/) was “acrB” and the “Gene that modulates bacterial susceptibility to the AMP” value ([1]; Neisseria meningitidis, Neisseria gonorrhoeae, ref http://www.ncbi.nlm.nih.gov/pmc/articles/PMC1196002/) was “mtrC, mtrD, mtrE”. For the same sequence, the “Gene that modulates bacterial susceptibility to the AMP” value ([1]; Neisseria meningitidis, ref https://www.ncbi.nlm.nih.gov/pmc/articles/PMC1196002/) was “lptA”, the “Gene that modulates bacterial susceptibility to the AMP” value ([1]; Neisseria meningitidis, ref https://www.ncbi.nlm.nih.gov/pmc/articles/PMC1196002/pdf/0005-05.pdf) was “lpxL1” and the “Gene that modulates bacterial susceptibility to the AMP” value ([1]; Parasutterella excrementihominis, ref https://utmb.influuent.utsystem.edu/en/publications/quorum-sensing-escherichia-coli-regulators-b-and-c-qsebc-a-novel-) was “qseB (pmrA)”. For the same sequence, the “Gene that modulates bacterial susceptibility to the AMP” value ([1]; Porphyromonas gingivalis, ref https://www.nature.com/articles/ijos200918.pdf?origin=ppub, https://www.ncbi.nlm.nih.gov/pmc/articles/PMC4388331/pdf/nihms-656041.pdf) was “lpxF”, the “Gene that modulates bacterial susceptibility to the AMP” value ([1]; Pseudomonas aeruginosa, Salmonella typhimurium, Escherichia coli, ref http://www.sciencemag.org/content/286/5444/1561.full.pdf, http://onlinelibrary.wiley.com/doi/10.1111/j.1365-2958.1995.tb02299.x/abstract, http://www.ncbi.nlm.nih.gov/pmc/articles/PMC50673/pdf/pnas01098-0300.pdf, https://jb.asm.org/content/jb/182/14/4077.full.pdf) was “phoP (PhoPQ)” and the “Gene that modulates bacterial susceptibility to the AMP” value ([1]; Pseudomonas aeruginosa, gene colR (ColRS), ref https://www.ncbi.nlm.nih.gov/pmc/articles/PMC4244539/pdf/fmicb-05-00643.pdf, http://aac.asm.org/content/57/5/2204.full.pdf+html) was “colR (ColRS)”. The “Gene that modulates bacterial susceptibility to the AMP” value ([1]; Pseudomonas aeruginosa, gene cprR (CprRS), ref https://www.ncbi.nlm.nih.gov/pmc/articles/PMC4244539/pdf/fmicb-05-00643.pdf, http://aac.asm.org/content/57/5/2204.full.pdf+html) was “cprR (CprRS)”, the “Gene that modulates bacterial susceptibility to the AMP” value ([1]; Pseudomonas aeruginosa, ref http://aac.asm.org/content/54/8/3372.full.pdf+html, http://aac.asm.org/content/56/12/6212.full.pdf+html, http://aac.asm.org/content/57/5/2204.full.pdf+html) was “parR (ParR-ParS)” and the “Gene that modulates bacterial susceptibility to the AMP” value ([1]; Pseudomonas aeruginosa, ref http://jb.asm.org/content/186/2/575.long) was “pmrB”. For the same sequence, the “Gene that modulates bacterial susceptibility to the AMP” value ([1]; Salmonella enterica serovar Typhimurium, ref http://www.jbc.org/content/279/37/38618.long, https://onlinelibrary.wiley.com/doi/epdf/10.1111/j.1365-2958.2005.04553.x) was “slyA”, the “Gene that modulates bacterial susceptibility to the AMP” value ([1]; Salmonella enterica serovar Typhimurium, ref http://www.jbc.org/content/279/37/38618.long) was “ugtL” and the “Gene that modulates bacterial susceptibility to the AMP” value ([1]; Salmonella enterica serovar Typhimurium, ref http://www.microbiologyresearch.org/docserver/fulltext/micro/154/2/666.pdf?expires=1487718158&id=id&accname=guest&checksum=D8B884D02A8B2A8619216A48E0826377) was “yejA”. The “Gene that modulates bacterial susceptibility to the AMP” value ([1]; Salmonella sp., ref https://www.ncbi.nlm.nih.gov/pmc/articles/PMC2904496/) was “eptA”, the “Gene that modulates bacterial susceptibility to the AMP” value ([1]; Salmonella typhimurium, Escherichia coli, ref https://www.ncbi.nlm.nih.gov/pmc/articles/PMC3037666/, https://www.ncbi.nlm.nih.gov/pmc/articles/PMC3837802/pdf/zam7770.pdf) was “cpxA (CpxA/CpxR)” and the “Gene that modulates bacterial susceptibility to the AMP” value ([1]; Salmonella typhimurium, gene pmrF (arnT operon), ref http://www.jbc.org/content/287/46/38778.full.pdf) was “pmrF (arnT operon)”. For the same sequence, the “Gene that modulates bacterial susceptibility to the AMP” value ([1]; Salmonella typhimurium, gene yfbG (arnA), ref http://www.jbc.org/content/287/46/38778.full.pdf) was “yfbG (arnA)”, the “Gene that modulates bacterial susceptibility to the AMP” value ([1]; Salmonella typhimurium, ref https://www.ncbi.nlm.nih.gov/pmc/articles/PMC205548/pdf/jbacter00030-0157.pdf) was “pmrD” and the “Gene that modulates bacterial susceptibility to the AMP” value ([1]; Staphylococcus aureus, ref http://aac.asm.org/content/51/8/2679.full.pdf+html) was “graR(GraRS)”. The “Gene that modulates bacterial susceptibility to the AMP” value ([1]; Vibrio cholerae, ref http://pubs.acs.org/doi/pdf/10.1021/cb500438x) was “almE, almF, almG”, the “Gene that modulates bacterial susceptibility to the AMP” value ([1]; Yersinia sp., ref http://www.helsinki.fi/yersinia/pdf_own/Bengo_MolMic_2000_37_67.pdf) was “rosA” and the “Gene that modulates bacterial susceptibility to the AMP” value [1] was “rcp (pagP) and pmm and bveA (BMEII0681)”. The “Gene that modulates bacterial susceptibility to the AMP” value ([1]; pathogenic or commensal Enterobacteriaceae species, gene rcsB, ref https://www.ncbi.nlm.nih.gov/pmc/articles/PMC2895427/pdf/nihms212407.pdf) was “rcsB”, the “Gene that modulates bacterial susceptibility to the AMP” value ([1]; pathogenic or commensal Enterobacteriaceae species, gene rcsC, ref https://www.ncbi.nlm.nih.gov/pmc/articles/PMC2895427/pdf/nihms212407.pdf) was “rcsC” and the “Gene that modulates bacterial susceptibility to the AMP” value ([1]; pathogenic or commensal Enterobacteriaceae species, gene rcsD, ref https://www.ncbi.nlm.nih.gov/pmc/articles/PMC2895427/pdf/nihms212407.pdf) was “rcsD”. The “Overexpression phenotype, Chemical-genetic profile” value ([2]; gene eptA) was “Confirmed” and the “Overexpression phenotype, Chemical-genetic profile” value ([2]; gene marA) was “Confirmed”.
